Data from patent publication US12544375B2, “Small molecule therapeutic for parkinson's disease paired with a biomarker of therapeutic activity” (The Board of Trustees of the Leland Stanford Junior …, priority 2019, dated 2026).

What was measured:
Miro1 mRNA = Miro1 mRNA expression by qPCR in fibroblasts; type: cell-based, human
Procedure: FIG. 8. Related to FIG. 2-4. Miro1 Reducer in Human Cell and Fly Models. (A) Fibroblasts from Healthy-1 and PD-2 were treated, lysed, and blotted as indicated. Band intensities are normalized to those of GAPDH from the same blots and compared to “Healthy-1, no treatment”. n=4 independent experiments. (B) Fibroblasts from PD-2 were treated and immunostained as indicated. The intensity was quantified for each cell across 264-320 cells from 3 independent experiments, compared to “no treatment”. (C) Fibroblasts were treated, immunoprecipitated (IPed) with anti-Miro1, and blotted as indicated. Similar results were observed twice. […] The GTPase activity of the IPed Miro1 protein was measured as described in Method. […] The MitoSox intensity was quantified for each cell across 106-161 cells from 3 coverslips. […] The TMRM intensity was measured for each cell across 48-60 cells from 3 independent experiments, and expressed as a fraction of the mean of “Healthy-1, no treatment”. […] The movement (the intensity of non-yellow) was quantified for each cell as described in (Tsai et al., 2014) across 22-31 cells from 3 transfections. […] (1) Left: The percentage of TH-positive iPSC-derived neurons out of total cells (Dapi-positive) is calculated after immunocytochemistry under 20× as described in FIG. 3. […]
PCR. […] Concentrations of total RNA were measured using a Nano Drop. […]

PD fibroblasts = test: Mitophagy at 14 hrs after CCCP in PD fibroblasts (Western blotting and immunocytochemistry); type: cell-based, human; conditions: 14 hrs after CCCP treatment
Procedure: (§1) FIG. 8. Related to FIG. 2-4. Miro1 Reducer in Human Cell and Fly Models. (A) Fibroblasts from Healthy-1 and PD-2 were treated, lysed, and blotted as indicated. Band intensities are normalized to those of GAPDH from the same blots and compared to “Healthy-1, no treatment”. n=4 independent experiments. (B) Fibroblasts from PD-2 were treated and immunostained as indicated. The intensity was quantified for each cell across 264-320 cells from 3 independent experiments, compared to “no treatment”. (C) Fibroblasts were treated, immunoprecipitated (IPed) with anti-Miro1, and blotted as indicated. Similar results were observed twice. (D) Similar as in (C), fibroblasts were treated as indicated, and IPed with anti-Miro1. The GTPase activity of the IPed Miro1 protein was measured as described in Method. […] The MitoSox intensity was quantified for each cell across 106-161 cells from 3 coverslips. […] The TMRM intensity was measured for each cell across 48-60 cells from 3 independent experiments, and expressed as a fraction of the mean of “Healthy-1, no treatment”. […] The movement (the intensity of non-yellow) was quantified for each cell as described in (Tsai et al., 2014) across 22-31 cells from 3 transfections. […] (1) Left: The percentage of TH-positive iPSC-derived neurons out of total cells (Dapi-positive) is calculated after immunocytochemistry under 20× as described in FIG. 3. […]

Miro1 = molecular target: T1, Miro1 (Homo sapiens, UniProt Q8IXI2); test: GTPase activity of Miro1 IPed from fibroblasts; type: biochemical; conditions: PD-2 fibroblasts, basal or depolarized condition
T1 construct: We applied compound 3 to fibroblasts from one sporadic PD patient (PD-2); endogenous in cells; host or cells: human skin fibroblasts (PD-2, Healthy-1 and further PD/control lines)
T1 sequence (Q8IXI2 whole entry): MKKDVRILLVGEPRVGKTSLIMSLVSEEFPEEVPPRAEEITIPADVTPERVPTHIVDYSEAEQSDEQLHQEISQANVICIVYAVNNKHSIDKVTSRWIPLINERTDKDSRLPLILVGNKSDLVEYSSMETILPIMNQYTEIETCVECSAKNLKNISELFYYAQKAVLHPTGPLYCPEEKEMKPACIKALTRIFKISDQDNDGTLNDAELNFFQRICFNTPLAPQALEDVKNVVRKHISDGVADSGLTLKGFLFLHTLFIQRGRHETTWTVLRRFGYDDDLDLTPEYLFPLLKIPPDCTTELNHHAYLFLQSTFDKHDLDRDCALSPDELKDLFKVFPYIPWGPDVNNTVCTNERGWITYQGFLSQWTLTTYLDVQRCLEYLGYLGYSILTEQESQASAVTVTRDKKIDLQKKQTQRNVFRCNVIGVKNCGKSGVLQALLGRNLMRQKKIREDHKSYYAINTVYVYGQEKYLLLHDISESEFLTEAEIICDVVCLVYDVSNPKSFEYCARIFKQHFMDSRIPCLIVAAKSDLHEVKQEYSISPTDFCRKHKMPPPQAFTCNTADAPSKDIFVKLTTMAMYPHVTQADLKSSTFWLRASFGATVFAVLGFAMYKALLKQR
Procedure: as §1

PINK1 null flies = test: Non-progressive phenotypes of PINK1 null flies (ATP levels, thoracic indentation, wing posture, flying ability); type: in vivo, fly; conditions: PINK1 null flies fed from adult onset with 2.5 μM
Procedure: as §1

[1] = test system: healthy-1 or PD-2 fibroblasts; test: Mitochondrial morphology and membrane potential, TMRM staining; type: cell-based, human; conditions: 10 μM for 30 hrs
Procedure: as §1

**Q.** O=C(Nc1ccc(Nc2cc(-n3ccnc3)ncn2)cc1)Nc1cccc(F)c1 [Miro1 Reducer] was tested. Which “Miro1 mRNA expression (qPCR)” value (Miro1 mRNA) did it give?
**A.** nor did it change Miro1 mRNA expression

**Q.** And the delayed mitophagy phenotype (PD fibroblasts)?
**A.** rescued the delayed mitophagy phenotype

**Q.** What about the “GTPase activity of IPed Miro1” value (Miro1) of the same compound?
**A.** did not affect

**Q.** What about the “non-progressive phenotypes (lowered ATP levels, thoracic indentation, abnormal wing posture, defective flying ability)” value (PINK1 null flies) of the same compound?
**A.** did not improve

**Q.** What about the “general mitochondrial morphology and ΔΨm (TMRM)” value [1] of the same compound?
**A.** did not affect
